Data reported in publication PMC2981816, “Oxalyl retro-peptide gelators. Synthesis, gelation properties and stereochemical effects” (Beilstein Journal of Organic Chemistry, 2010).
Blank lines part the entries; values can stand above or below the molecule they belong to.

Legend:
Type in all cases: physicochemical
[1] = Gelation test: gelator effectiveness (Geff) and minimal gelation concentration in solvents and solvent mixtures
[2] = as above; parameters: key: sol.: soluble; ins.: insoluble; cr.: crystallization; [A]: gel/sol mixture; details: max. volume immobilized by 10 mg gelator, Table 3
Description: (§1) Gelation observed for selected gelator–solvent pairs is expressed by gelator effectiveness (Geff, mL) corresponding to the maximal volume of solvent that could be immobilized by 10 mg of the gelator (Table 1). […] However, 3a and 5a also gelled small to moderate volumes of EtOH and rac-2-octanol, whilst Leu incorporating 1a formed gels with the more lipophilic solvents, decalin and tetralin. […] Apparently, the retro-peptides incorporating aliphatic and aromatic amino acids are less versatile gelators compared to retro-peptides containing […] amino acid fragments. The latter points to the importance of intermolecular lipophilic interactions for the stabilization of gel assemblies being stronger in the case of identical amino acids either lipophilic or aromatic, and weaker for mixed aromatic-lipophilic amino acid fragments present in the gelator molecule.

[3] = as above; parameters: key: sol.: soluble; ins.: insoluble; cr.: crystalline; [A]: gel/sol mixture; details: max. volume immobilized by 10 mg gelator, Table 3
Description: as §1

[4] = as above; parameters: key to Gelator effectiveness (Geff): sol.: soluble; ins.: insoluble; cr.: crystallization; [A]: gel/sol mixture; details: for Gelation effectiveness (Geff): Table 3
Description: as §1

[5] = Concentration-dependent 1H NMR of toluene-d8 gel samples (self-assembly saturation point)
From the text: In the first case the oxalamide NH and Leu-NH protons were downfield shifted by 1.6 and 1.8 ppm, respectively, for a gelator concentration increase from 0.001–0.1 mol dm^−3. […] The monitored protons of (S,S)-1b are more strongly downfield shifted than the corresponding protons of (S,R)-1b for the same concentration range. Similar trends of NH and C*H concentration induced shifts are observed for (S,S)-1b and its racemate (S,S)-1b/(R,R)-1b toluene-d8 gels (Figure 6). Again the magnitudes of the NH and C*H concentration induced shifts are higher for the (S,S)-1b than for the racemate gel. […]
If the racemate were organized in the conglomerate as separate enantiomeric (S,S)-1b and (R,R)-1b assemblies, the magnitudes of the concentration induced shifts should be similar to those measured the for (S,S)-1b assemblies. […]
The discontinuous concentration induced shift curves obtained for (S,R)-1b diasteroisomer may indicate the presence of different assemblies at lower and higher gelator concentrations. It appears that the first saturation point is reached at a concentration around 0.03 mol dm^-3 and the second at 0.12 mol dm^−3, the latter corresponding nicely to the experimentally determined MGC of 0.116 mol dm^−3. […]

[6] = max. volume immobilized by 10 mg gelator, CH2Cl2, Table 2
[7] = max. volume immobilized by 10 mg gelator, CH3CN, Table 2
[8] = max. volume immobilized by 10 mg gelator, H2O/DMF mixture, given as volume + volume, Table 2
[9] = max. volume immobilized by 10 mg gelator, H2O/DMSO mixture, given as volume + volume, Table 2
[10] = max. volume immobilized by 10 mg gelator, H2O, Table 2
[11] = max. volume immobilized by 10 mg gelator, THF, Table 2
[12] = max. volume immobilized by 10 mg gelator, decalin, Table 2
[13] = max. volume immobilized by 10 mg gelator, p-xylene, Table 2
[14] = max. volume immobilized by 10 mg gelator, tetralin, Table 2
[15] = max. volume immobilized by 10 mg gelator, toluene, Table 2
[16] = max. volume immobilized by 10 mg gelator, H2O/DMF mixture, given as volume + volume
[17] = max. volume immobilized by 10 mg gelator, H2O/DMSO mixture, given as volume + volume
[18] = max. volume immobilized by 10 mg gelator, tetralin

solubility in water [1]: insoluble
Molecule: O=C(N[C@H](C(=O)N[C@H](C(=O)O)c1ccccc1)c1ccccc1)C(=O)N[C@H](C(=O)N[C@H](C(=O)O)c1ccccc1)c1ccccc1 [3a, (S,S)-N,N'-Oxalyl-bis(phenylglycyl-phenylglycine)]

Gelation effectiveness (Geff) ([2]; CH2Cl2): ins. | Gelation effectiveness (Geff) ([2]; CH3CN): ins. | Gelation effectiveness (Geff) ([2]; EtOH): ins. | Gelation effectiveness (Geff) ([2]; H2O): ins. | Gelation effectiveness (Geff) ([2]; THF): ins. | Gelation effectiveness (Geff) ([2]; p-xylene): ins. | Gelation effectiveness (Geff) ([2]; tetralin): ins. | Gelation effectiveness (Geff) ([2]; toluene): ins. | Gelation effectiveness (Geff) ([2]; ±2-octanol): ins. | Gelation effectiveness (Geff) ([3]; H2O/DMF mixture, given as volume + volume): cr. | Gelation effectiveness (Geff) ([3]; H2O/DMSO mixture, given as volume + volume): cr.
Molecule: NC(=O)[C@@H](NC(=O)[C@@H](NC(=O)C(=O)N[C@H](C(=O)N[C@H](C(N)=O)c1ccccc1)c1ccccc1)c1ccccc1)c1ccccc1 [3c, bis(PhgPhgNH2)]

Gelator effectiveness (Geff) [4, 6]: sol. | Gelator effectiveness (Geff) [4, 7]: cr | Gelator effectiveness (Geff) [4, 8]: cr. | Gelator effectiveness (Geff) [4, 9]: 0.2+0.5 mL | Gelator effectiveness (Geff) [4, 10]: ins. | Gelator effectiveness (Geff) [4, 11]: sol. | Gelator effectiveness (Geff) [4, 12]: 4.8 mL | Gelator effectiveness (Geff) [4, 13]: 1.1 mL | Gelator effectiveness (Geff) [4, 14]: 0.9 mL | Gelator effectiveness (Geff) [4, 15]: 1.25 mL
Molecule: COC(=O)[C@H](CC(C)C)NC(=O)[C@@H](NC(=O)C(=O)N[C@H](C(=O)N[C@@H](CC(C)C)C(=O)OC)c1ccccc1)c1ccccc1 [4b, (S,S)-N,N'-Oxalyl-bis(phenylglycyl-leucine methyl ester)]

solubility in water [1]: insoluble
Molecule: O=C(N[C@@H](Cc1ccccc1)C(=O)N[C@@H](Cc1ccccc1)C(=O)O)C(=O)N[C@@H](Cc1ccccc1)C(=O)N[C@@H](Cc1ccccc1)C(=O)O [5a, (S,S)-N,N'-Oxalyl-bis(phenylalanyl-phenylalanine)]

Gelation effectiveness (Geff) ([2]; CH2Cl2): ins. | Gelation effectiveness (Geff) ([2]; CH3CN): ins. | Gelation effectiveness (Geff) ([2]; EtOH): ins. | Gelation effectiveness (Geff) ([2]; H2O): ins. | Gelation effectiveness (Geff) ([2]; THF): ins. | Gelation effectiveness (Geff) ([2]; p-xylene): ins. | Gelation effectiveness (Geff) ([2]; toluene): ins. | Gelation effectiveness (Geff) ([2]; ±2-octanol): ins. | Gelation effectiveness (Geff) [4, 16]: 2.7+3.0 mL | Gelation effectiveness (Geff) [4, 17]: 1.3+1.6 mL | Gelation effectiveness (Geff) [4, 18]: 2.0 mL
Molecule: NC(=O)[C@H](Cc1ccccc1)NC(=O)[C@H](Cc1ccccc1)NC(=O)C(=O)N[C@@H](Cc1ccccc1)C(=O)N[C@@H](Cc1ccccc1)C(N)=O [5c, bis(PhePheNH2)]

Gelation effectiveness (Geff) ([2]; CH3CN): ins. | Gelation effectiveness (Geff) ([2]; H2O): ins. | Gelation effectiveness (Geff) ([2]; THF): ins. | Gelation effectiveness (Geff) ([2]; p-xylene): ins. | Gelation effectiveness (Geff) ([2]; ±2-octanol): ins. | Gelation effectiveness (Geff) ([4]; max. volume immobilized by 10 mg gelator, CH2Cl2 + DMSO (footnote a), volume + volume): 1.05+0.2^a mL | Gelation effectiveness (Geff) [4, 16]: 0.45+0.75 mL | Gelation effectiveness (Geff) [4, 17]: 0.55+1.4 mL | Gelation effectiveness (Geff) [4, 18]: 7.3 mL | Gelation effectiveness (Geff) ([4]; max. volume immobilized by 10 mg gelator, toluene + DMSO (footnote a), volume + volume): 1.05+0.2^a mL | Gelation effectiveness (Geff) ([3]; EtOH): cr.
Molecule: CC(C)C[C@H](NC(=O)[C@H](CC(C)C)NC(=O)C(=O)N[C@@H](CC(C)C)C(=O)N[C@@H](CC(C)C)C(N)=O)C(N)=O [(S,S)-1c, bis(LeuLeuNH2)]

Gelator effectiveness (Geff) [4, 6]: sol. | Gelator effectiveness (Geff) [4, 7]: cr. | Gelator effectiveness (Geff) ([4]; max. volume immobilized by 10 mg gelator, EtOH, Table 2): cr. | Gelator effectiveness (Geff) [4, 8]: 11.5+11.7 mL | Gelator effectiveness (Geff) [4, 9]: 9.7+10.0 mL | Gelator effectiveness (Geff) [4, 10]: ins. | Gelator effectiveness (Geff) [4, 11]: cr. | Gelator effectiveness (Geff) [4, 12]: 0.8 mL | Gelator effectiveness (Geff) [4, 13]: 0.5 mL | Gelator effectiveness (Geff) [4, 14]: 0.2 mL | Gelator effectiveness (Geff) [4, 15]: 0.15 mL | Gelator effectiveness (Geff) ([4]; max. volume immobilized by 10 mg gelator, ±2-octanol, Table 2): cr. | minimal gelation concentration (MGC) ([4]; toluene, experimentally determined): 0.116 mol dm^−3 | second saturation point of concentration induced 1H NMR shifts ([5]; toluene-d8): 0.12 mol dm^−3 | saturation point of concentration induced 1H NMR shifts (self-assembly equilibrium) ([5]; toluene-d8, concentration range 0.001–0.1 mol dm^−3, first or only saturation point): around 0.03 mol dm^−3
Molecule: (S,R)-N,N'-Oxalyl-bis(leucyl-leucine methyl ester) [(S,R)-1b]

Gelator effectiveness (Geff) ([4]; max. volume immobilized by 10 mg gelator, CH2Cl2 + DMSO (footnote a), given as volume + volume, Table 1): 1.5+0.05^a mL | Gelator effectiveness (Geff) ([4]; max. volume immobilized by 10 mg gelator, CH3CN, Table 1): 0.95 mL | Gelator effectiveness (Geff) ([4]; max. volume immobilized by 10 mg gelator, EtOH, Table 1): 1.5 mL | Gelator effectiveness (Geff) ([4]; max. volume immobilized by 10 mg gelator, H2O/DMF mixture, given as volume + volume, Table 1): cr. | Gelator effectiveness (Geff) ([4]; max. volume immobilized by 10 mg gelator, H2O/DMSO mixture, given as volume + volume, Table 1): 0.8+0.4 mL | Gelator effectiveness (Geff) ([4]; max. volume immobilized by 10 mg gelator, THF, Table 1): 0.4 mL | Gelator effectiveness (Geff) ([4]; max. volume immobilized by 10 mg gelator, decalin, Table 1): 0.2 mL | Gelator effectiveness (Geff) ([4]; max. volume immobilized by 10 mg gelator, p-xylene, Table 1): 2.45 mL | Gelator effectiveness (Geff) ([4]; max. volume immobilized by 10 mg gelator, tetralin, Table 1): 3.0 mL | Gelator effectiveness (Geff) ([4]; max. volume immobilized by 10 mg gelator, toluene, Table 1): 1.95 mL | Gelator effectiveness (Geff) ([4]; max. volume immobilized by 10 mg gelator, ±2-octanol, Table 1): 10.95 mL | Gelator effectiveness (Geff) ([4]; maximal volume of solvent immobilized by 10 mg of gelator, solvent H2O, Table 1): 0.4 mL
Molecule: bis(Leu)oxalamide [reference compound]
